Results: the supplement of paper PMC10307832

Columns and labels:
Experiment in all cases: relative viability (nuclei count vs DMSO), 5 days (fraction); higher = more cells survive
17-AAG + AZD7762 = compound: C=CCNC1=C2C[C@@H](C)C[C@H](OC)[C@H](O)[C@@H](C)/C=C(\C)[C@H](OC(N)=O)[C@@H](OC)/C=C\C=C(/C)C(=O)NC(=CC1=O)C2=O [17-AAG] + NC(=O)Nc1cc(-c2cccc(F)c2)sc1C(=O)N[C@H]1CCCNC1 [AZD7762] (partner 0.2 µM)
In short: (§1)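 Nuclei were stained with Hoechst during a one-step fixation (final 0.05% Triton X-100, 1% formaldehyde, 1 ug/ml Hoechst) carried out 5 days after dosing, then counted on 4× images. The cells, lung cancer lines in 1536-well plates, had been dosed by pin tool the day after seeding with one drug alone or a fixed anchor-drug dose plus five library-drug doses (not always all listed) in √10 steps. Relative viability is the nuclei count in treated wells divided by that in vehicle wells, and each value is the median of duplicate plates.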

17-AAG + Vorinostat = compound: C=CCNC1=C2C[C@@H](C)C[C@H](OC)[C@H](O)[C@@H](C)/C=C(\C)[C@H](OC(N)=O)[C@@H](OC)/C=C\C=C(/C)C(=O)NC(=CC1=O)C2=O [17-AAG] + O=C(CCCCCCC(=O)Nc1ccccc1)NO [Vorinostat] (partner 1 µM)
In short: as §1

17-AAG + Foretinib = compound: C=CCNC1=C2C[C@@H](C)C[C@H](OC)[C@H](O)[C@@H](C)/C=C(\C)[C@H](OC(N)=O)[C@@H](OC)/C=C\C=C(/C)C(=O)NC(=CC1=O)C2=O [17-AAG] + COc1cc2c(Oc3ccc(NC(=O)C4(C(=O)Nc5ccc(F)cc5)CC4)cc3F)ccnc2cc1OCCCN1CCOCC1 [Foretinib] (partner 0.25 µM)
In short: as §1

17-AAG + Pictilisib = compound: C=CCNC1=C2C[C@@H](C)C[C@H](OC)[C@H](O)[C@@H](C)/C=C(\C)[C@H](OC(N)=O)[C@@H](OC)/C=C\C=C(/C)C(=O)NC(=CC1=O)C2=O [17-AAG] + CS(=O)(=O)N1CCN(Cc2cc3nc(-c4cccc5[nH]ncc45)nc(N4CCOCC4)c3s2)CC1 [Pictilisib] (partner 1 µM)
In short: as §1

| Cell Line | relative viability (17-AAG + AZD7762; first compound 0.00128 µM) | relative viability (17-AAG + AZD7762; first compound 0.004048 µM) | relative viability (17-AAG + AZD7762; first compound 0.0128 µM) | relative viability (17-AAG + AZD7762; first compound 0.04048 µM) | relative viability (17-AAG + AZD7762; first compound 0.128 µM) | relative viability (17-AAG + Vorinostat; first compound 0.00128 µM) | relative viability (17-AAG + Vorinostat; first compound 0.004048 µM) | relative viability (17-AAG + Vorinostat; first compound 0.0128 µM) | relative viability (17-AAG + Vorinostat; first compound 0.04048 µM) | relative viability (17-AAG + Vorinostat; first compound 0.128 µM) | relative viability (17-AAG + Foretinib; first compound 0.00128 µM) | relative viability (17-AAG + Foretinib; first compound 0.004048 µM) | relative viability (17-AAG + Foretinib; first compound 0.0128 µM) | relative viability (17-AAG + Foretinib; first compound 0.04048 µM) | relative viability (17-AAG + Foretinib; first compound 0.128 µM) | relative viability (17-AAG + Pictilisib; first compound 0.00128 µM) | relative viability (17-AAG + Pictilisib; first compound 0.004048 µM) | relative viability (17-AAG + Pictilisib; first compound 0.0128 µM) | relative viability (17-AAG + Pictilisib; first compound 0.04048 µM) | relative viability (17-AAG + Pictilisib; first compound 0.128 µM) |
| --- | --- | --- | --- | --- | --- | --- | --- | --- | --- | --- | --- | --- | --- | --- | --- | --- | --- | --- | --- | --- |
| NCI-H460 | 0.549 | 0.676 | 0.0907 | 0.0489 | 0.0524 | 0.733 | 0.41 | 0.0303 | 0.0238 | 0.0231 | 0.983 | 0.907 | 0.063 | 0.0391 | 0.0257 | 0.404 | 0.462 | 0.193 | 0.0668 | 0.0737 |
| NCI-H1793 | 0.66 | 0.306 | 0.173 | 0.109 | 0.0863 | 0.687 | 0.656 | 0.283 | 0.189 | 0.148 | 0.63 | 0.622 | 0.442 | 0.165 | 0.161 | 0.309 | 0.172 | 0.193 | 0.188 | 0.144 |
| NCI-H23 | 0.201 | 0.4 | 0.18 | 0.122 | 0.0996 | 0.635 | 0.373 | 0.344 | 0.129 | 0.116 | 0.906 | 1.04 | 0.842 | 0.641 | 0.182 | 0.468 | 0.517 | 0.224 | 0.179 | 0.145 |
| HARA | 0.425 | 0.295 | 0.209 | 0.251 | 0.18 | 0.485 | 0.586 | 0.517 | 0.396 | 0.097 | 0.884 | 0.911 | 0.865 | 0.792 | 0.455 | 0.49 | 0.445 | 0.385 | 0.16 | 0.164 |
| NCI-H1792 | 0.494 | 0.302 | 0.0583 | 0.0445 | 0.0494 |  |  |  |  |  |  |  |  |  |  | 0.326 | 0.308 | 0.253 | 0.171 | 0.143 |
| NCI-H1703 | 0.114 | 0.156 | 0.113 | 0.109 | 0.134 |  |  |  |  |  | 0.325 | 0.331 | 0.215 | 0.229 | 0.191 | 0.235 | 0.181 | 0.188 | 0.168 | 0.141 |
| NCI-H2342 | 0.441 | 0.739 | 0.468 | 0.447 | 0.359 | 0.651 | 0.86 | 0.715 | 0.668 | 0.409 | 0.97 | 1.04 | 0.968 | 0.846 | 0.374 |  |  |  |  |  |
| CAL-12T | 0.655 | 0.553 | 0.608 | 0.393 | 0.233 | 0.796 | 0.729 | 0.671 | 0.65 | 0.282 | 1.12 | 1.07 | 1.08 | 0.608 | 0.202 | 0.541 | 0.601 | 0.417 | 0.377 | 0.193 |
| NCI-H838 | 0.978 | 0.849 | 0.669 | 0.633 | 0.604 | 0.759 | 0.779 | 0.213 | 0.168 | 0.169 | 0.965 | 0.977 | 0.667 | 0.178 | 0.158 | 0.498 | 0.306 | 0.174 | 0.157 | 0.132 |
| NCI-H2085 | 0.983 | 1.02 | 1 | 1 | 0.551 | 0.787 | 0.809 | 0.861 | 0.665 | 0.599 | 0.92 | 0.834 | 1.06 | 0.844 | 0.563 | 0.474 | 0.416 | 0.448 | 0.475 | 0.529 |
| NCI-H1395 | 0.415 | 0.431 | 0.395 | 0.34 | 0.337 | 0.626 | 0.607 | 0.415 | 0.366 | 0.368 | 0.963 | 0.988 | 0.843 | 0.396 | 0.318 | 0.659 | 0.614 | 0.381 | 0.354 | 0.435 |
| NCI-H1648 |  | 0.854 | 0.558 | 0.626 | 0.325 |  | 0.433 | 0.362 | 0.538 | 0.243 |  |  |  |  |  |  |  |  |  |  |
| NCI-H520 |  |  |  |  |  | 0.75 | 0.662 | 0.433 | 0.174 | 0.181 | 0.763 | 0.56 | 0.702 | 0.169 | 0.142 | 0.275 | 0.254 | 0.207 | 0.167 | 0.161 |
| A549 |  |  |  |  |  |  |  |  |  |  | 0.963 | 0.815 | 0.55 | 0.0245 | 0.0282 | 0.543 | 0.114 | 0.0532 | 0.0751 | 0.0642 |
| IA-LM |  |  |  |  |  | 0.911 | 1.02 | 0.927 | 0.819 | 0.823 | 1.21 | 1.05 | 1.19 | 0.491 | 0.313 | 0.325 | 0.366 | 0.182 | 0.0706 | 0.0517 |
| EKVX | 0.817 | 0.726 | 0.669 | 0.435 | 0.162 | 0.783 | 0.802 | 0.719 | 0.423 | 0.567 | 0.895 | 0.805 | 0.175 | 0.192 | 0.131 | 0.43 | 0.472 | 0.528 | 0.142 | 0.101 |
| ChaGo-K-1 | 0.843 | 0.871 | 0.861 | 0.449 | 0.217 | 0.749 | 0.776 | 0.691 | 0.49 | 0.214 | 0.916 | 0.829 | 0.851 | 0.861 | 0.313 | 0.759 | 0.801 | 0.7 | 0.477 | 0.26 |
| SW 900 | 0.661 | 0.68 | 0.255 | 0.11 | 0.133 | 0.51 | 0.547 | 0.23 | 0.138 | 0.131 | 0.868 | 0.735 | 0.39 | 0.119 | 0.0963 |  |  |  |  |  |
